Values of other authors, collected in patent publication US11077086B2, “Solid dosage form composition for buccal or sublingual administration of cannabinoids” (PHARMACEUTICAL PRODUCTIONS, INC., priority 2014, dated 2021).

System: cannabinoid receptor

For `C=C(C)[C@@H]1CCC(C)=C[C@H]1c1c(O)cc(CCCCC)cc1O` [cannabidiol (CBD), cannabidiol], the “affinity for the cannabinoid receptor” value is listed as “do not have significant affinity”.
